# Experimental data published in patent publication US12616713B2, “Methods for enhancing vascular density” (priority 2016, dated 2026).
# Tests used:
# HUVECs [1] = assay: Tube formation assay, HUVECs after H2O2; assay type: cell-based, human; conditions: H2O2 150 μM 1 h, NMN 500 μM 10 h
# Method: Formation of tube networks was assessed as described before (Borradaile and Pickering, 2009, Aging Cell 8, 100-112). ECs were seeded at 10,000 cells per well in a 24-well plate (Corning) coated with 150 μL Cultrex reduced growth factor basement membrane extract (Trevigen). The cells were supplemented with C2C12 CM or EBM-2 medium containing VEGF (30 ng/mL) or FGF (30 ng/mL). NMN (0.5 mM) and NaHS (0.1 mM) were added to the media wherever mentioned. Following an 18 h-incubation, resulting tube networks were analyzed by light microscopy (Nikon Eclipse TiE). For tube formation assays with H2O2 treatment, cells were incubated with 150 μM H2O2 for 1 h before seeding and imaged after 10 h-incubation. The number of branch points and total length of tubule networks were quantified by ImageJ software.
# HAECs = assay: Spheroid sprouting assay, HAECs; assay type: cell-based, human
# Method: ECs spheroids were generated as described previously (Korff and Augustin, 1998, J Cell Biol 143, 1341-1352). ECs (1000 cells per spheroid) were suspended in EGM-2 medium containing 20% methocel (viscosity: 4000 cps, Sigma) and seeded in non-adherent round-bottom 96-well plates (Sigma). Under these conditions all suspended cells contributed to the formation of a single spheroid. The spheroids were harvested after 24 h embedded into collagen gels. Sprouting was initiated by adding C2C12 CM or EBM-2 medium containing VEGF (50 ng/mL). NMN (0.5 mM), NaHS (0.1 mM), DAPT (20 μM, Cayman Chemical) or SU5416 (10 μM, Sigma) were added to the media wherever mentioned. Angiogenic activity was quantified by measuring the sprout length that had grown out of each spheroid analyzing 8-10 spheroids per group.
# NAD^+ = assay: NAD+ measurements in tissues of NMN-treated mice; assay type: in vivo, mouse; conditions: 18-month old mice, NMN 400 mg/kg/day in drinking water, two months; liver and gastrocnemius
# From the text: SIRT1-iKO, SIRT1-Tg and SIRT1^STOP mice were described previously (Firestein et al., 2008, PLoS One 3, e2020; Price et al., 2012, Cell Metab 15, 675-690). Tie2Cre and Sirt1^flox/flox mice were purchased from Jackson Laboratory (Bar Harbor, ME). MCK-PGC-1α and MyogCre mice were gifts from Dr. Bruce Spiegelman (Dana Farber Cancer Center, MA) and Dr. Eric N. Olson (UT Southwestern, Dallas, TX), respectively. mT-STOP^flox/flox, Gfp mouse was generated in house by E.O.W., which consists of an allele driven by ubiquitous actin B promoter, which has loxP sites flanking membrane-targeted tandem dimer Tomato (mT) and transcriptional STOP cassette, followed by a GFP coding sequence. […] SIRT1-iKO mice were fed tamoxifen (360 mg/kg) diet for five weeks to elicit whole-body SIRT1 exon 4 excision as described previously (Price et al., 2012). […] Levels of NAD^+ and NADH levels were measured in EC and muscle homogenates using commercially available kit (NAD-NADH Glo, Promega) according to manufacturer's instructions. Alternatively, NAD^+ levels in muscle and liver were measured by assay in-house developed method (Uddin et al., 2016, Front Pharmacol 7, 258). […] The other aliquot was acidified with HCl, and then neutralized with NaOH on ice to quantify NAD^+. […] Total NADH and NAD^+ were quantified using a Bio-Rad Imark microplate reader.
# HUVECs [2] = assay: VEGF-mediated transwell migration assay, HUVECs; assay type: cell-based, human; conditions: NMN 500 μM versus PBS
# [3] = system: aortic rings from 18-month old mice; assay: Aortic ring assay (ex vivo angiogenesis); assay type: cell-based, mouse; conditions: 18-month old WT mice, VEGF 30 ng/mL, NMN 0.5 mM, 7 days, versus PBS
# Method: Aortic ring assay was performed according to the published protocol (Baker et al., 2012, Nat Protoc 7, 89-104). Briefly, thoracic aortas from mice were excised and transferred to Opti-MEM media. All extraneous fat, tissue and branching vessels were removed with forceps and a scalpel under a dissection microscope. The aortas were cut into ˜0.5 mm wide rings and serum starved overnight by incubating in Opti-MEM at 37° C./5% CO2. Next day, each aortic ring was embedded in 50 μL collagen matrix in a 96-well plate and incubated at 37° C./5% CO2 for 1 h. After embedding, the vessel sprouting was stimulated by supplementing the rings with 150 μL of Opti-MEM culture containing FBS (2.5%), with or without VEGF (30 ng/mL), or FGF (30 ng/mL) and incubating at 37° C./5% CO2 for 7 days. NMN (500 μM) was added to the media wherever mentioned and replaced every 3 days. The resulting sprouts were stained with BS1 lectin-FITC (Sigma) and imaged using fluorescence microscope. The number and total area of sprouts originating from aortic rings were quantified by ImageJ software.
# HUVECs [4] = assay: Seahorse analysis of oxygen consumption rate; assay type: cell-based, human; conditions: NaHS 100 μM, NMN 500 μM
# Method: Oxygen consumption rates were measured in accordance with manufacturer instructions using Seahorse XF96 analyzer (Seahorse Bioscience). Briefly, 40,000 HUVECs were plated onto XF96 plates and incubated overnight at 37° C./5% CO2. Next day, the media was replaced with XF assay media (DMEM), supplemented with glucose (1 g/L), glutamate (2 mM) and pyruvate (1 mM) and the pH was adjusted to 7.4. NaHS (100 μM) and/or NMN (500 μM) were added at the start of the experiment. Oxygen consumption measurements were made approximately every 8 minutes under basal conditions, and after the addition of oligomycin (1 μM). Experiments were replicated in six wells and averaged for each experimental condition.
smiles,measurement,setting,value
"NC(=O)c1ccc[n+]([C@@H]2O[C@H](COP(=O)([O-])O)[C@@H](O)[C@H]2O)c1 [NMN, nicotinamide mononucleotide]",VEGF mediated angiogenesis (tube formation) after treatment with H2O2,HUVECs [1],promoted VEGF mediated angiogenesis
same,"ability of NMN to stimulate spheroid sprouting, dependence on SIRT1","HAECs; NT or SIRT1 siRNA, VEGF 50 ng/mL, NMN 0.5 mM",SIRT1-dependent
same,rescue of SU5416-blocked sprouting,HAECs; SU5416 10 μM plus NMN 0.5 mM,not rescued
same,VEGF-mediated spheroid sprouting after knockdown of SIRT3 and SIRT6,"HAECs; T3 or T6 siRNA, VEGF, NMN 0.5 mM",partially rescued
same,NAD^+ levels in tissues,NAD^+,raised NAD^+ levels
same,motility in response to VEGF (migrated cells),HUVECs [2],promoted
same,number of VEGF-mediated outgrowths or sprouts per aortic ring,[3],doubled
same,basal OCR,HUVECs [4],had no effect
